Measured values taken from patent US8426370B2, “Diaryl hepatonoid-based compounds and use thereof” (priority 2008, dated 2013).
Like-named read-outs stand apart in the source and are kept apart here.

Columns and labels:
[1] = system: avian influenza virus KBNP-0028 (KCTC 10866BP); assay type: cell-based, A/chicken/Korea/SNU0028/2000(H9N2)
[2] = system: CEF (chicken embryo fibroblasts)

## O=C(CCc1ccc(O)c(O)c1)C[C@H](CCc1ccc(O)c(O)c1)OC1OCC(O)C(O)C1OC(=O)/C=C/c1ccc(O)cc1 (stereo partly drawn) [12B-AJ-17A-1, (5S)-1,7-bis(3,4-dihydroxyphenyl)-3-heptanone-5-O-(2-coumaroyl)-β-D-xylopyranoside]
[1]
  antiviral activity (in words): had antiviral activity
[1]; 12.5 μg/mL
  Number of wells wherein hemagglutination occurs (among 6 wells): 3
[1]; 25 μg/mL
  Number of wells wherein hemagglutination occurs (among 6 wells): 3
[1]; 50 μg/mL
  Number of wells wherein hemagglutination occurs (among 6 wells): 3
[1]; 100 μg/mL
  Number of wells wherein hemagglutination occurs (among 6 wells): 3
[2]
  cytotoxicity (in words): no cytotoxicity
